Results reported in ChEMBL document CHEMBL1909046, “DrugMatrix in vitro pharmacology data”.

Assays:
[1] = target: T1, C-X-C chemokine receptor type 1 (Homo sapiens, UniProt P25024); also: in other assays of this panel Not Active means under 50% inhibition at 10 µM
T1 sequence (P25024 whole entry): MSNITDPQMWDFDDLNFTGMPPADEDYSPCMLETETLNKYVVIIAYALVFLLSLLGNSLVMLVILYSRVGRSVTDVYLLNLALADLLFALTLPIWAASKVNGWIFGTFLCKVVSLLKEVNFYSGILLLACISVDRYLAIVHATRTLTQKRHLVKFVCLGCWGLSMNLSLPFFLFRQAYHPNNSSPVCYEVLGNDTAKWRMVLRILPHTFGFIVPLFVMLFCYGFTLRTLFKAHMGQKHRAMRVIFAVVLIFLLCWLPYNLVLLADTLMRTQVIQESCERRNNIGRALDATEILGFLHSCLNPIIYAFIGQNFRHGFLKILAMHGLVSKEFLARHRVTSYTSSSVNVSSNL

Cathepsin G = target: T2, Cathepsin G (Homo sapiens, UniProt P08311); format: tissue-based; conditions: neutrophil;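 also: inhibition of Cathepsin G enzyme activity, tested on an AMC-conjugated peptide substrate; in other assays of this panel Not Active means under 50% inhibition at 10 µM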
T2 sequence (P08311 whole entry): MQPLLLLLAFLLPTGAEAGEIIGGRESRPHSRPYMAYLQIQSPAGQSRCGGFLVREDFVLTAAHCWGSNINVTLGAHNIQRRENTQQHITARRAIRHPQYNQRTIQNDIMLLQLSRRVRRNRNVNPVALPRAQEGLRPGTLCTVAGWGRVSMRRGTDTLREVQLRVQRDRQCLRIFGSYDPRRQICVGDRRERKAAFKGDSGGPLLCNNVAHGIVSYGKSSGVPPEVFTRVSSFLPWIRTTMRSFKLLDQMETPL

[2] = target: Beta-3 adrenergic receptor (Homo sapiens, UniProt P13945); test: DRUGMATRIX: Adrenergic beta3 radioligand binding (ligand: [125I] Cyanopindolol); format: cell membranes, Membrane; conditions: hek293; Not Active = under 50% inhibition at 10 µM
[3] = target: T3, Alpha-1B adrenergic receptor (Rattus norvegicus, UniProt P15823); test: DRUGMATRIX: Alpha-1B adrenergic receptor radioligand binding (ligand: prazosin); format: cell membranes, Wistar, Liver, Membrane; conditions: Not Active = under 50% inhibition at 10 µM
T3 sequence (P15823 whole entry): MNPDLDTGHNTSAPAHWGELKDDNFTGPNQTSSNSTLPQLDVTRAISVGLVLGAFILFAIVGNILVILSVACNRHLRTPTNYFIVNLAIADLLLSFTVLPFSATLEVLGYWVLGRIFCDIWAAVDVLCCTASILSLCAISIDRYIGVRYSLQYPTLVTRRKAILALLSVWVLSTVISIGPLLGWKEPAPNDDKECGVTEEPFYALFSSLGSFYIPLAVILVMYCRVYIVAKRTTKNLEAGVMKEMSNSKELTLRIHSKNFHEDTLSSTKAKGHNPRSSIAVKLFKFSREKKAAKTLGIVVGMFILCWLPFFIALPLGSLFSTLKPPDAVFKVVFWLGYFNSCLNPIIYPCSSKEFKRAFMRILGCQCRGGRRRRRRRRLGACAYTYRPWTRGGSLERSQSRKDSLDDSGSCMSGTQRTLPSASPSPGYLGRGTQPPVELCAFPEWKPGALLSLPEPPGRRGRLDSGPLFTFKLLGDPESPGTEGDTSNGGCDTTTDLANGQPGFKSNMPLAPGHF

Nitric oxide synthase 1 = Nitric oxide synthase 1 (Rattus norvegicus, UniProt P29476); format: tissue-based, Cerebellum; also: in other assays of this panel Not Active means under 50% inhibition at 10 µM
[4] = DRUGMATRIX: Atrial Natriuretic Factor (ANF) radioligand binding (ligand: [125I] ANF (rat)); format: cell membranes, Cavia porcellus, Dunkin-Hartley, Adrenal gland, Membrane; conditions: Not Active = under 50% inhibition at 10 µM
[5] = DRUGMATRIX: Phorbol Ester radioligand binding (ligand: [3H] PDBu); format: cell membranes, Mus musculus, ICR, Brain, Membrane; conditions: Not Active = under 50% inhibition at 10 µM
[6] = DRUGMATRIX: Calcium Channel Type L, Phenylalkylamine radioligand binding (ligand: [3H] (-)-Desmethoxyverapamil (D-888)); format: cell membranes, Rattus norvegicus, Wistar, Brain, Membrane; conditions: Not Active = under 50% inhibition at 10 µM
[7] = DRUGMATRIX: Imidazoline I2, Central radioligand binding (ligand: [3H] Idazoxan); format: cell membranes, Rattus norvegicus, Wistar, Cerebral cortex, Membrane; conditions: Not Active = under 50% inhibition at 10 µM

Chain of Beta-3 adrenergic receptor (P13945 whole entry): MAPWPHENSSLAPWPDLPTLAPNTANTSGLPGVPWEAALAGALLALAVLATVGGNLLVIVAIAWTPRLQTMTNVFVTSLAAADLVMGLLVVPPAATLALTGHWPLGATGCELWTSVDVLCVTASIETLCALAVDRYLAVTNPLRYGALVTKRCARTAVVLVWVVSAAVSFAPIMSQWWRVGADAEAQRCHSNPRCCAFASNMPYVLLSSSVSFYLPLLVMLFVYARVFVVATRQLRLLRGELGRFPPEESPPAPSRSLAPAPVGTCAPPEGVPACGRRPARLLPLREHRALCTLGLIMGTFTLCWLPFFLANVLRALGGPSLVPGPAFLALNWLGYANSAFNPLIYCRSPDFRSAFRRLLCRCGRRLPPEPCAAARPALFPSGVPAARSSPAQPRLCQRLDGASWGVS
Chain of Nitric oxide synthase 1 (P29476 whole entry): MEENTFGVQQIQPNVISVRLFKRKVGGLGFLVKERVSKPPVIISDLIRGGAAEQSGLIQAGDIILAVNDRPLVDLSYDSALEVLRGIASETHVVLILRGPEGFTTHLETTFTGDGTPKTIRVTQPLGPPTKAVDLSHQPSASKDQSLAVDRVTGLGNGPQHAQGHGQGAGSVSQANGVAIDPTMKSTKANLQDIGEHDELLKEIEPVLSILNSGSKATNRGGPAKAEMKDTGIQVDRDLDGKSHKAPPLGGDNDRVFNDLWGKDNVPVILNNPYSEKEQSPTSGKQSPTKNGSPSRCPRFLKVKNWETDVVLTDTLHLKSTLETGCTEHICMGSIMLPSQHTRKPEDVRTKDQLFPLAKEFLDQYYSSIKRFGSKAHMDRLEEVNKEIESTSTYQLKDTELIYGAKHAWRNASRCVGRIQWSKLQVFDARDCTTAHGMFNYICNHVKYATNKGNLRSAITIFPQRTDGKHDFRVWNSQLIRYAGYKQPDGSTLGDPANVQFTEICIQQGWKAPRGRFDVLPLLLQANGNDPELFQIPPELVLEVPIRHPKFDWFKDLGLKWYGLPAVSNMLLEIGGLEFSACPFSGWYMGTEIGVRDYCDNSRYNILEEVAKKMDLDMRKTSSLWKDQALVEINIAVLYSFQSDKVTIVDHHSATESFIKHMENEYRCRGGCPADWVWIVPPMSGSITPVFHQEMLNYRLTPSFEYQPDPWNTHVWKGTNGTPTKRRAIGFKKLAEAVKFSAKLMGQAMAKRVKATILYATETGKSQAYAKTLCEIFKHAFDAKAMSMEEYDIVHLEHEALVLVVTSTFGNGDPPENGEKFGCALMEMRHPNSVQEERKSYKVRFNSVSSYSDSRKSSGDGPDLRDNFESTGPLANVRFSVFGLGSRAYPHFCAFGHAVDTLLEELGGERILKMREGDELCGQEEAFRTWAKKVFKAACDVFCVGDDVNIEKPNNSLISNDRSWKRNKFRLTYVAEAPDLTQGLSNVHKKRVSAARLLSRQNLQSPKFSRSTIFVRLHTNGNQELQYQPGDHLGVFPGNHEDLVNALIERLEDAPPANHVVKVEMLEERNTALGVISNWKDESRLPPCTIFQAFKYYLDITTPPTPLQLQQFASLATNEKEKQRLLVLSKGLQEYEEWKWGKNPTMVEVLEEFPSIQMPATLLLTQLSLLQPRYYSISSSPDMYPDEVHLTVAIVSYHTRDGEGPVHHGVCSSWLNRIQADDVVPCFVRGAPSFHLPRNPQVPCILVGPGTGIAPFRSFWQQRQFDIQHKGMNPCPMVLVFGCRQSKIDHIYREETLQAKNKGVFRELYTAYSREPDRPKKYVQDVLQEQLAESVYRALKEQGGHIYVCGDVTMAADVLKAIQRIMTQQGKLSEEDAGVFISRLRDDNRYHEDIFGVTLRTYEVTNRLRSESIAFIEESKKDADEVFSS

Cc1cc2cc3c(C)cc(=O)oc3c(C)c2o1 [TRIOXSALEN]
Not Active: IC50 [1] | IC50 (Cathepsin G) | IC50 [2] | IC50 [3] | IC50 (Nitric oxide synthase 1) | IC50 [4] | Ki [4] | IC50 [5] | Ki [5] | IC50 [6] | Ki [6] | IC50 [7] | Ki [7]

CCCC(CCC)C(=O)O [VALPROIC ACID]
Not Active: IC50 [1] | IC50 (Cathepsin G) | IC50 [2] | IC50 [3] | IC50 (Nitric oxide synthase 1) | IC50 [4] | Ki [4] | IC50 [5] | Ki [5] | IC50 [6] | Ki [6] | IC50 [7] | Ki [7]

CCC1=C[C@@H]2CN(C1)Cc1c([nH]c3ccccc13)[C@@](C(=O)OC)(c1cc3c(cc1OC)N(C)[C@H]1[C@@](O)(C(=O)OC)[C@H](OC(C)=O)[C@]4(CC)C=CCN5CC[C@]31[C@@H]54)C2 [VINORELBINE]
Not Active: IC50 [1] | IC50 (Cathepsin G) | IC50 [2] | IC50 [3] | IC50 (Nitric oxide synthase 1) | IC50 [4] | Ki [4] | IC50 [5] | Ki [5] | IC50 [6] | Ki [6] | IC50 [7] | Ki [7]

CADMIUM DICHLORIDE
Not Active: IC50 [1] | Ki [1] | IC50 (Cathepsin G) | Ki (Cathepsin G) | IC50 [2] | Ki [2] | IC50 [3] | Ki [3] | IC50 (Nitric oxide synthase 1) | Ki (Nitric oxide synthase 1) | IC50 [4] | Ki [4] | IC50 [5] | Ki [5] | IC50 [6] | Ki [6] | IC50 [7] | Ki [7]
